Measurements as given in patent US20230067847A1, “COMBINATION OF BERBERINE AND DERIVATIVES THEREOF, AND VITAMIN B12” (NANJING NUTRABUILDING BIO-TECH CO., LTD., priority 2021, published 2023).

Columns and labels:
high-fat diet (HFD) mice [1] = assay: Glycated hemoglobin (HbA1c) in HFD mice after 3 months of supplementation; type: in vivo; details: after three months of supplementation, FIG. 1e
Description: (§1) The high-fat diet (HFD, containing 60% fat by energy) mice at 8 weeks of age were divided into three groups: (1) non-supplement group (Con, n=5); (2) DHB supplement group (DHB, 100 mg/kg, n=5); […] VB12=100 mg/kg: 200 mg/kg, n=5). All mice were administered these things before each major meal for once daily (2 g/kg body weight) by gavage in normal saline solution for 3 months. Blood samples were collected from tail tips in a fasting state to measure serum VB 12, serum homocysteine, glucose, and serum holo-transcobalamin II (holo-TCII, a biologically active fraction for TCII receptors synthesis) and weighed the mice for 0th, 2th, 4th, 6th, 8th, 10th and 12th week. After 3 months of supplementation, glycated hemoglobin (HbA1c) was measured. Also, the insulin tolerance test was performed after 3 months of supplementation after subcutaneous injection of insulin (0.4 U/kg, 0.05 ml/10 g body weight) for 0, 30, 90 minutes. […] Elevated homocysteine was defined as > 15 µM/L. Vitamin B12 levels and holo-TCII were measured by using immunoassay analyzer to confirm the improvement in TCII receptors synthesis and VB12 levels. Serum homocysteine levels were measured using the chemiluminescent microparticle immunoassay to show the VB12 levels. HbA1c was determined with automated glycohemoglobin analyzer, which can indicate the effect of blood glucose control during the trial. […]

high-fat diet (HFD) mice [2] = assay: Serum VB12 level in HFD mice (immunoassay analyzer); details: mouse, in vivo
Description: The high-fat diet (HFD, containing 60% fat by energy) mice at 8 weeks of age were divided into three groups: (1) non-supplement group (Con, n=5); (2) DHB supplement group (DHB, 100 mg/kg, n=5); (3) the combination of DHB and VB12 supplement group (DHB+VB12, DHB: VB12=100 mg/kg: 200 mg/kg, n=5). All mice were administered these things before each major meal for once daily (2 g/kg body weight) by gavage in normal saline solution for 3 months.
Blood samples were collected from tail tips in a fasting state to measure serum VB 12, serum homocysteine, glucose, and serum holo-transcobalamin II (holo-TCII, a biologically active fraction for TCII receptors synthesis) and weighed the mice for 0th, 2th, 4th, 6th, 8th, 10th and 12th week. After 3 months of supplementation, glycated hemoglobin (HbA1c) was measured. […] Elevated homocysteine was defined as > 15 µM/L. Vitamin B12 levels and holo-TCII were measured by using immunoassay analyzer to confirm the improvement in TCII receptors synthesis and VB12 levels. Serum homocysteine levels were measured using the chemiluminescent microparticle immunoassay to show the VB12 levels. HbA1c was determined with automated glycohemoglobin analyzer, which can indicate the effect of blood glucose control during the trial. […]

high-fat diet (HFD) mice [3] = assay: Insulin tolerance test in HFD mice after 3 months of supplementation; type: in vivo; details: 90 minutes after subcutaneous insulin 0.4 U/kg, FIG. 1d
Description: as §1

high-fat diet (HFD) mice [4] = assay: Fasting blood glucose in HFD mice during 3 months of supplementation; type: in vivo; details: after three months (12th week), gavage once daily, FIG. 1a
Description: as §1

COc1ccc2c(c1OC)CN1CCc3cc4c(cc3C1=C2)OCO4 [DHB, dihydroberberine]
HbA1c level decreased compared to the control group (high-fat diet (HFD) mice [1]): about 20%
serum total VB12 change (high-fat diet (HFD) mice [2]): significantly decreased
blood glucose level lower than control group in insulin tolerance test (high-fat diet (HFD) mice [3]): about 15%
blood glucose level decreased compared to the control group (high-fat diet (HFD) mice [4]): about 35%
